Tested on: FLT3 mutant positive AML
Assay: Clinical response to midostaurin plus chemotherapy, Princess Margaret cohort of 54 AML patients
Assay type: in vivo, human
[1] = midostaurin plus chemotherapy, 54 FLT3 mutant-positive AML patients

Structure (SMILES): CO[C@@H]1[C@H](N(C)C(=O)c2ccccc2)C[C@H]2O[C@]1(C)n1c3ccccc3c3c4c(c5c6ccccc6n2c5c31)C(=O)NC4 [midostaurin, N-[(9S,I0R,I IR,I3R)-2,3,I0,I I,I2,I3-hexahydro-I0-methoxy-9-methyl-I-oxo-9,I3-epoxy-IH, 9H-diindolo[1,2,3-gh: 3′,2′,I′-Im]pyrrolo[3,4-j][I, 7]benzodiazonin-I I-yl]-N-methylbenzamide]
- Responses to midostaurin, average [1]: 84 weeks
- Responses to midostaurin, range [1]: 0-513 weeks
- patients refractory or relapsed at the time of carrying out the analysis (of 54 AML patients treated with midostaurin plus chemotherapy): 25 patients

Reference: patent US20240261259A1 (priority 2021, published 2024)
